The values below come from PubChem BioAssay (NCI).

Common to all, as to assay: inhibition of tumour cell growth, NCI panel, 48 h
Test [1] has as its system HL-60(TB) leukemia.
Test [2] has as its system HT29 colon.
The subject of test [3] is KM12 colon.
The test system of test [4] is LOX IMVI melanoma.
Test [5] has as its system M14 melanoma.
The subject of test [6] is MDA-MB-435.
In test [7] the test system is MOLT-4 leukemia.
For test [8], the system named is PC-3 prostate.
The test system of test [9] is SK-MEL-2 melanoma.
The test system of test [10] is T-47D breast.

Where “and” joins values, the source holds several entries; their conditions need not be identical. Identical values can stand only once.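 Method: 48-hour compound exposure of cells in 96-well plates, five concentrations, linear interpolation of endpoints. Abbreviation: GI50, concentration required for 50% inhibition of growth. At the TGI there is no net growth.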 Bounds are passed on as bounds.

For `CC(=O)O[C@]1(C(C)=O)CC[C@H]2[C@@H]3C=C(C)C4=CC(=O)CC[C@]4(C)[C@H]3CC[C@@]21C`, the GI50 in test [1] is 12.8 µM; in test [2], more than 100 µM; in test [3], more than 100 µM; in test [4], more than 100 µM; in [5], more than 85.6 µM; in test [6], more than 100 µM. In addition, the GI50 is 43.2 µM in test [7], 42.6 µM in test [8], more than 100 µM in [9] and more than 64.7 µM in [10]. For the same compound, the TGI is 61.6 µM in [1]; more than 100 µM in test [2]; more than 100 µM in test [3]; more than 100 µM in test [4]; more than 100 µM in [5]; more than 100 µM in test [6]. The TGI in test [7], in test [8], in [9] and in test [10] was more than 100 µM in each case.
As to `Cn1ccnc1C(=O)/C=C/c1ccccc1`, the GI50 is 2.79 µM in test [1]; 3.31 µM in test [2]; 3.06 µM in [3]; 2.99 µM in test [4]; 3.41 µM in [5]; 3.21 µM in test [6]. Moreover, the GI50 was 3.35 µM in test [7], 12.5 µM in test [8], 3.63 µM in [9] and 2.78 µM in test [10]. Also, the TGI in [1] turned out to be 7.73 µM; in test [2] it was 11.2 µM; in [3], 12.5 µM; in [4], 14.3 µM; in test [5], 10.4 µM; in test [6] it was 10.2 µM. Also, the TGI amounted to 15.6 µM in test [7], 37.4 µM in [8], 17.1 µM in test [9] and 7.35 µM in [10].
Take `CN(CC(=O)N(Cc1ccc(C2CCCCC2)cc1)c1ccc(C(=O)O)c(O)c1)S(=O)(=O)c1c(F)c(F)c(F)c(F)c1F`: the GI50 in test [1] was 2.18 µM; in [2] it was 2.05 µM; in [3], 19 µM; in test [4], 1.6 µM; in test [5], 3.07 µM; in [6] it was 3.39 µM. For the same compound, the GI50 in test [7] was 3.12 µM; in test [8], 12.2 µM; in [9], 2.2 µM; in test [10], 8.14 µM. Moreover, the TGI in test [1] is 5.82 µM; in [2], 4.2 µM; in test [3], 33.7 µM; in test [4], 3.01 µM; in test [5], 13 µM; in [6], 15.8 µM. For the same compound, the TGI in test [7] came to 12 µM; in [8] it was 27.7 µM; in test [9], 4.76 µM; in test [10] it was 27 µM.
Turning to `CCCCCCCCCc1cccc(N2C(N)=NC(N)=NC2(C)C)c1`, the TGI was 1.71 µM in [1]; 1.33 µM in test [2]; 1.53 µM in test [5]; 1.83 µM in test [6]; more than 35.7 µM in test [8]; 4.65 µM in test [9]. The TGI in test [10] was determined as 5.75 µM.
With `CN1CCN(c2ccc3nc(-c4ccc5nc(-c6ccc(OCCC(C)(C)C)cc6)[nH]c5c4)[nH]c3c2)CC1`, the GI50 in test [1] is 4.71 µM; in test [2], 1.78 µM; in test [3], 1.91 µM; in test [5], 2.39 µM; in test [6], 1.97 µM; in [7], 3.12 µM. Further, the figures for the GI50 in test [8], in test [9] and in [10] were 2.63 µM, 19.7 µM and 14.2 µM, respectively. The TGI in test [1] turned out to be 29.1 µM; in test [2], 4.07 µM; in test [3], 4.2 µM; in test [5] it was 6.53 µM; in test [6], 3.99 µM; in test [7] it was 10.7 µM. For the same compound, the TGI in test [8] is 5.81 µM; in test [9], 38.5 µM; in [10], 41.1 µM.
As to `CCCCCCCCCCCC1CCCC(C)N1` (stereo not given), the GI50 in test [1] was 1.15 µM; in test [2], 2.59 µM; in test [3], 2.95 µM; in [4], 3.62 µM; in test [5], 8.47 µM; in test [6] it was 5.01 µM. Besides, the GI50 was 1.79 µM in test [7], 5.57 µM in test [8], 5.88 µM in [9] and 2.16 µM in [10]. Moreover, the TGI was 8.78 µM and 65.7 µM in test [2]; 16.1 µM and > 70.7 µM in [4]; 31.7 µM in test [5]; 18.2 µM in test [6]; 45 µM in test [8]; 12.8 µM in [10].
As for `CC1(C)[C@@H](O[C@@H]2OC[C@@H](O[C@@H]3O[C@H](CO)[C@@H](O)[C@H](O)[C@H]3O[C@@H]3OC[C@@H](O)[C@H](O)[C@H]3O)[C@H](O)[C@H]2O[C@@H]2O[C@H](CO)[C@@H](O)[C@H](O)[C@H]2O)CC[C@]2(C)[C@H]3CC[C@]45OC[C@@]6(CC[C@](C)(C=O)C[C@H]64)[C@H](O)C[C@@]5(C)[C@]3(C)CC[C@@H]12`, the GI50 was 1.04 µM in test [1]; 1.01 µM in test [2]; 1.21 µM in test [3]; 0.924 µM in test [4]; 0.925 µM in [5]; 0.851 µM in test [6]. Further, the GI50 was 0.962 µM in [7], 0.884 µM in [8], 0.886 µM in test [9] and 1.52 µM in test [10]. Further, the TGI in test [1] turned out to be 2.21 µM; in test [2], 2.06 µM; in [3], 3.17 µM; in test [4] it was 1.95 µM; in [5] it was 1.81 µM; in test [6], 1.6 µM. Further, the TGI was 2.31 µM in [7], 1.78 µM in [8], 1.74 µM in test [9] and 5 µM in test [10].
On to `C=C1CC/C=C(\C)C(=O)C[C@@H]2[C@@H]1CC2(C)C`, for which the TGI in test [1] was 0.507 µM; in test [2], more than 32.7 µM; in test [3], 39.1 µM; in [4], 7.06 µM; in test [5] it was 19.7 µM; in test [6], 5.18 µM. In addition, the TGI turned out to be 26.1 µM in test [8], 43.8 µM in [9] and 7.8 µM in test [10].
